In US10434112B2, “Use of agonists of formyl peptide receptor 2 for treating dermatological diseases” (Allergan, Inc., priority 2013, dated 2019):

test system: LL-37-induced inflammation in mouse ears; assay: LL37-induced model of rosacea in mice (ear thickness); type: in vivo; conditions: topical application to ears; FIG. 2; p<0.05 vs. vehicle at all time points
Experimental: Prior to dosing, animals are lightly anaesthetized with isofluorane and baseline right and left ear thickness measurements are made with a digital caliper (Mitutoyo 293-340). At t=−1 hrs, animals are lightly anaesthetized with isoflurane to allow topical application (dorsal side) of 10 μL of FPR2 agonist formulated in a vehicle consisting of PBS:ethanol (50:50), or vehicle control to both ears. At t=0 hr, mice are re-anaesthetized. Following ear thickness measurements, 20 uL of LL-37 (100 μM) is injected into the right ear, while PBS is injected into the left ear. Additional ear thickness measurements are taken at t=3 and 6 hours. After the last time point, mice are euthanized by CO2 inhalation and ears collected for additional analyses.

Row | Compound | Anti-inflammatory activity in the LL-37-induced rosacea mouse model
1 | CC[C@H](C)[C@H](NC(=O)Nc1ccc(Br)cc1)C(=O)NCC(=O)O [Compound 3, {[(2S,3S)-2-{[(4-bromophenyl)carbamoyl]amino}-3-methylpentanoyl]amino} acetic acid] | Anti-inflammatory activity
2 | CC(C)C[C@H](NC(=O)Nc1ccc(Br)cc1F)C(=O)NCC(=O)O [Compound 7, {[(2S)-2-{[(4-bromo-2-fluorophenyl)carbamoyl]amino}-4-methylpentanoyl]amino} acetic acid] | Anti-inflammatory activity
3 | CC(C)C[C@H](NC(=O)Nc1ccc(Br)cc1)C(=O)NCC(=O)O [Compound 8, {[(2S)-2-{[(4-bromophenyl)carbamoyl]amino}-4-methylpentanoyl]amino} acetic acid] | Anti-inflammatory activity

molecular target: human FPR2 receptor (Homo sapiens (Human), UniProt P25090); assay: FLIPR Ca+2 response in HEK-Gα16 cells stably expressing the human FPR2 receptor; type: cell-based; parameters: FPR2 (% eff): unit not given here; conditions: Table 4; value in brackets, given mostly as fraction
Outline: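 HEK-Gα16 cells stably expressing human FPR2, loaded with 2 μM Fluo-4 in HBSS/20 mM HEPES for 40 min at 37° C., then washed. Ligands added in HBSS/Hepes and Ca+2 responses recorded on FLIPR in relative fluorescence units.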

human FPR2 receptor, sequence (P25090 whole entry): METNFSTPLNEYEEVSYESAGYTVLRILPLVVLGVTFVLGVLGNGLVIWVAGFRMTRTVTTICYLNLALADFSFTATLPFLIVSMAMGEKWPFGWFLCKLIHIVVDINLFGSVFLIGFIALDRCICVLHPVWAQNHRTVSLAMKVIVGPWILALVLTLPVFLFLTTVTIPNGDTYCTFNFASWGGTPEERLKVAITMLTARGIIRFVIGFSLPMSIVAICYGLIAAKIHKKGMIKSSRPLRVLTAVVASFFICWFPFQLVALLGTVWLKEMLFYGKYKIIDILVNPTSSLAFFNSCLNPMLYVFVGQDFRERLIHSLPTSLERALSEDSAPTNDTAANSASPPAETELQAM

Row | Compound | FPR2 (% eff)
4 | CC[C@H](C)[C@H](NC(=O)Nc1ccc(Br)cc1)C(=O)NCC(=O)O [Compound 3, {[(2S,3S)-2-{[(4-bromophenyl)carbamoyl]amino}-3-methylpentanoyl]amino} acetic acid] | 1.0
5 | CC(C)C[C@H](NC(=O)Nc1ccc(Br)cc1)C(=O)N(C)CC(=O)OC(C)(C)C [Compound 154, tert-butyl {[(2S)-2-{[(4-bromophenyl)carbamoyl]amino}-4-methylpentanoyl](methyl)amino}acetate] | 0.85
6 | CC(C)C[C@H](NC(=O)Nc1ccc(Br)cc1)C(=O)N(C)CC(=O)O [Compound 155, {[(2S)-2-{[(4-bromophenyl)carbamoyl]amino}-4-methylpentanoyl](methyl)amino}acetic acid] | 1.0
7 | CC(C)C[C@H](NC(=O)Nc1ccc(C(F)(F)F)cc1)C(=O)NCS(=O)(=O)O [Compound 237, {[(2S)-4-methyl-2-({[4-(trifluoromethyl)phenyl]carbamoyl}amino)pentanoyl]amino}methanesulfonic acid] | 0.99

molecular target: FPRL-1 (Homo sapiens (Human), UniProt P25090); assay: FPRL-1 Ga16-CHO EC50 (efficacy); type: cell-based; conditions: Table 1
Sequence (P25090 whole entry): as above

Row | Compound | EC50 [nM]
8 | O=C(Nc1ccc(Br)cc1)NC(Cc1ccccc1)C(=O)O (stereo in doubt) [(2S)-2-({[(4-bromophenyl)amino]carbonyl}amino)-3-phenylpropanoic acid] | 31

same assay, conditions: Table 1; value in brackets

Row | Compound | FPRL-1 Ga16-CHO (efficacy)
9 | O=C(Nc1ccc(Br)cc1)NC(Cc1ccccc1)C(=O)O (stereo in doubt) [(2S)-2-({[(4- bromophenyl)amino]carbonyl}amino)- 3-phenylpro] [(2S)-2-({[(4-bromophenyl)amino]carbonyl}amino)-3-phenylpropanoic acid] | 1.0
10 | COc1ccc(NC(=O)NC(Cc2ccccc2)C(=O)O)cc1OC (stereo not shown) [2-({[(3,4-dimethoxyphenyl)amino]carbonyl}amino)-3-phenylpropanoic acid] | 0.72
11 | O=C(Nc1ccc(Br)cc1)NC(Cc1c[nH]c2ccccc12)C(=O)O (stereo not shown) [2-({[(4-bromophenyl)amino]carbonyl}amino)-3-(1H-indol-3-yl)propanoic acid] | 0.89
12 | O=C(Nc1ccc(Cl)cc1)NC(Cc1ccccc1)C(=O)O (stereo not shown) [2-({[(4-chlorophenyl)amino]carbonyl}amino)-3-phenylpropanoic acid] | 1.0
13 | O=C(Nc1ccc(OC(F)(F)F)cc1)NC(Cc1ccccc1)C(=O)O (stereo not shown) [3-phenyl-2-[({[4-(trifluoromethoxy)phenyl]amino}carbonyl)amino]propanoic acid] | 0.79
14 | O=C(Nc1ccc(Br)cc1)N[C@H](Cc1ccccc1)C(=O)O [(2R)-2-({[(4- bromophenyl)amino]carbonyl}amino)- 3-phenylpro] [(2R)-2-({[(4-bromophenyl)amino]carbonyl}amino)-3-phenylpropanoic acid] | 0.99
15 | O=C(Nc1ccc(Cl)c(Cl)c1)N[C@@H](Cc1ccccc1)C(=O)O [(2S)-2-({[(3,4-dichlorophenyl)amino]carbonyl}amino)-3-phenylpropanoic acid] | 0.57
16 | CC(C)[C@H](NC(=O)Nc1ccc(Br)cc1F)C(=O)O [(2S)-2-({[(4-bromo-2-fluorophenyl)amino]carbonyl}amino)-3-methylbutanoic acid] | 0.91
17 | CC(C)[C@H](NC(=O)Nc1ccc(Br)cc1)C(=O)O [(2S)-2-({[(4-bromophenyl)amino]carbonyl}amino)-3-methylbutanoic acid] | 0.91
18 | COc1ccc(NC(=O)N[C@@H](Cc2ccccc2)C(=O)O)cc1 [(2S)-2-({[(4-methoxyphenyl)amino]carbonyl}amino)-3-phenylpropanoic acid] | 0.90
19 | O=C(Nc1ccc(C(F)(F)F)cc1)N[C@@H](Cc1ccccc1)C(=O)O [(2S)-3-phenyl-2-[({[4-(trifluoromethyl)phenyl]amino}carbonyl)amino]propanoic acid] | 0.97
20 | O=C(Nc1ccc(Br)cc1)N[C@H](C(=O)O)c1ccccc1 [(2S)-({[(4-bromophenyl)amino]carbonyl}amino) (phenyl)acetic acid] | 0.94
21 | CC[C@H](C)[C@H](NC(=O)Nc1ccc(Br)cc1)C(=O)O [(2S,3S)-2-({[(4-bromophenyl)amino]carbonyl}amino)-3-methylpentanoic acid] | 0.89

same assay, conditions: Table 2; value in brackets

Row | Compound | FPRL-1 Ga16-CHO (efficacy)
22 | CC1(CCc2ccccc2)NC(=O)N(NC(=O)Nc2ccccc2F)C1=O (stereo not shown) [1-(2-fluorophenyl)-3-[4-methyl-2,5-dioxo-4-(2-phenylethyl)imidazolidin-1-yl]urea] | 0.94
23 | O=C(Nc1ccc(Cl)cc1)NN1C(=O)NC2(CCCCC2)C1=O [1-(4-chlorophenyl)-3-(2,4-dioxo-1,3-diazaspiro[4,5]decan-3-yl) urea] | 0.98
24 | CCC1(C)NC(=O)N(NC(=O)Nc2ccc(Cl)cc2)C1=O (stereo not shown) [1-(4-chlorophenyl)-3-(4-ethyl-4-methyl-2,5-dioxoimidazolidin-1-yl)urea] | 0.96
25 | Cc1ccc(NC(=O)NN2C(=O)NC3(CCC(C)CC3)C2=O)cc1 (stereo not shown) [1-(8-methyl-2,4-dioxo-1,3-diazaspiro[4,5]decan-3-yl)-3-(p-tolyl)urea] | 0.91
26 | CC1(CCc2ccccc2)NC(=O)N(NC(=O)Nc2ccccc2)C1=O (stereo not shown) [1-[4-methyl-2,5-dioxo-4-(2-phenylethyl)imidazolidin-1-yl]-3-phenylurea] | 1.0

same assay, conditions: Table 3; value in brackets

Row | Compound | FPRL-1 Gal16-CHO (efficacy)
27 | O=C(CN1C(=O)C2CC=CCC2C1=O)Nc1ccc(Br)cc1 (stereo not shown) [N-(4-bromophenyl)-1,3,3a,4,7,7a-hexahydro-1,3-dioxo-2H-isoindole-2-acetamide] | 0.98
28 | O=C(CN1C(=O)C2C3C=CC(C3)C2C1=O)Nc1ccc(Br)cc1 (stereo not shown) [N-(4-bromophenyl)-1,3,3a,4,7,7a-hexahydro-1,3-dioxo-4,7-methano-2H-isoindole-2-acetamide] | 0.90
29 | O=C(CN1C(=O)NC2(CCCCC2)C1=O)Nc1ccc(Br)cc1 [N-(4-bromophenyl)-2-(2,4-dioxo-1,3-diazaspiro[4.5]dec-3-yl)acetamide] | 0.89
30 | CCC1(CC)NC(=O)N(CC(=O)Nc2ccc(Br)cc2)C1=O [N-(4-bromophenyl)-2-(4,4-diethyl-2,5-dioxoimidazolidin-1-yl)acetamide] | 0.98
31 | CC1(C)NC(=O)N(CC(=O)Nc2ccc(Br)cc2)C1=O [N-(4-bromophenyl)-2-(4,4-dimethyl-2,5-dioxoimidazolidin-1-yl)acetamide] | 0.94
